# Laboratory results as given in patent US4663326A, “Pyrazolo[4,3-d]pyrimidine-5,7-(4H,6H)dione or -5-thione-7-one analogs” (Warner-Lambert Company, priority 1985, dated 1987).
# Key:
# [1] = target: T1, adenosine receptors (designated A1) (Rattus norvegicus, UniProt P25099); test: Adenosine receptor binding - A1 receptor affinity (RBA1), [3H]-CHA displacement, rat whole brain minus cerebellum and brainstem membranes; set-up: species or system rat (male Long Evans); conditions: 1.0 nM [3H]-CHA, 25° C., pH 7.7; repeat tests (Test 1-4) one line each; read-out: RBA-1 (IC50, adenosine A1 affinity)
# T1 construct: Whole brain minus cerebellum and brainstem from male Long Evans rats (150-200 g); from tissue; host or cells: whole brain minus cerebellum and brainstem, male Long Evans rats, membranes
# T1 sequence (P25099 1-326): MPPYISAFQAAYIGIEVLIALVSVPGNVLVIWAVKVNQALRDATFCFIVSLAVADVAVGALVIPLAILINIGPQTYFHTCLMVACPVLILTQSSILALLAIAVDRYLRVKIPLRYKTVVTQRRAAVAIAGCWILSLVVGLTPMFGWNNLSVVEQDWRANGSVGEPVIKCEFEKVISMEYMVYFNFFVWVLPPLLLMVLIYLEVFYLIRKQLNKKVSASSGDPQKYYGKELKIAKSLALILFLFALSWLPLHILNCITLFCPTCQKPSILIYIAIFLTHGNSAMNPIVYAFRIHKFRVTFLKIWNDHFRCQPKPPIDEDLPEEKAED
# Description: ADENOSINE RECEPTOR BINDING-A1 RECEPTOR AFFINITY (RBA1)
# Whole brain minus cerebellum and brainstem from male Long Evans rats (150-200 g) was homogenized in 30 volumes of ice-cold 0.05M Tris-HCl buffer pH 7.7 using a Brinkman Polytron PT-10, (setting number 6 for 20 seconds) and centrifuged for ten minutes at 20,000×g (Sorvall RC-2), 4° C. The supernatant was discarded, and the pellet was resuspended and centrifuged as before. The pellet was resuspended in 20 ml Tris-HCl buffer containing two International Units/ml of adenosine deaminase (Sigma type III from calf intestinal mucosa), incubated at 37° C. for 30 minutes, then subsequently at 0° C. for ten minutes. The homogenate was again centrifuged, and the final pellet was resuspended in ice-cold 0.05M Tris-HCl buffer pH 7.7 to a concentration of 20 mg/ml original wet tissue weight and used immediately.
# Tissue homogenate (10 mg/ml) was incubated in 0.05M Tris-HCl buffer pH 7.7 containing 1.0 nM [^3 H]-N^6 -cyclohexyladenosine (^3 H]-CHA) with or without test agents in triplicate for one hour at 25° C. Incubation volume was 2 ml. Unbound [^3 H]-CHA was separated by rapid filtration under reduced pressure through Whatman glass fiber (GF/B) filters. The filters were rinsed three times with 5 ml of ice cold 0.05M Tris-HCl buffer pH 7.7. The radio-labeled ligand retained on the filter was measured by liquid scintillation spectrophotometry after shaking the filters for one hour or longer on a mechanical shaker in 10 ml of Beckman Ready-Solv HP scintillation cocktail.
# Nonspecific binding was defined as the binding which occurred in the presence of 1 mM theophylline. The concentration of test agent which inhibited 50% of the specific binding (IC50) was determined by nonlinear computer curve fit. The Scatchard plot was calculated by linear regression of the line obtained by plotting the amount of radioligand bound ([…]) versus [bound radioligand/free radioligand].Since the amount of radioligand bound was a small fraction of the total amount added, free radioligand was defined as the concentration (nM) of radioligand added to the incubation mixture. The Hill coefficient was calculated by linear regression of the line obtained by plotting the log of the bound radioligand vs the log of the [bound radioligand/(Bmax -bound radioligand)]. The maximal number of binding sites (Bmax) was calculated from the Scatchard plot.
# Type 1 Phosphodiesterase = test: PDE inhibition, Type 1 phosphodiesterase, smooth muscle (bovine coronary arteries); assay type: biochemical; conditions: 1 × 10^-5 M
# Source text: The method of Thompson, et al (Thompson, W. J., Terasaki, W. L., Epstein, P. M., Strada, S. J., Adv. Cyclic Nucleotide Res., 10:69-92, 1979), with minor modifications, was used to isolate phosphodiesterases from vascular smooth muscle. Bovine coronary arteries (right, anterior descending, and left circumflex arteries) from hearts obtained from a local slaughterhouse were used for these studies. Arteries from two hearts were used for each isolation. Hearts were kept on ice and the arteries were dissected within two hours after the animals were sacrificed. After removing all fat and connective tissue, the arteries were everted, cut into cubes with a single edge razor blade and homogenized with a Brinkman Polytron three times at a rheostat setting of 10.0 in four volumes of the PDE isolation buffer (10 mM Tris-HCl/pH 7.5, 2 mM MgCl2, and 1 mM dithiothreitol). The resulting homogenate was sonicated (30 sec/ml homogenate) and then centrifuged at 30,000×g for 20 minutes. This and all subsequent procedures were performed at 4° C. The resulting supernatant was filtered through four layers of gauze, and applied to a DEAE-cellulose column (30×1.5 cm), prepared as described by Cheung (Cheung, W. Y., Biochim. Biopphys. Acta, 191:303-315, 1969), and equilibrated with freshly prepared 70 mM sodium acetate/5 mM 2-mercaptoethanol (pH 6.5). The column was then washed with 2-3 bed volumes of sodium acetate/2-mercaptoethanol, after which the phosphodiesterases were eluted from the column using a continuous 70-1,000 mM sodium acetate gradient (pH 6.5, containing 5 mM 2-mercaptoethanol; total volume 400 ml). The flow rate was approximately equal to 25 ml/hr. Eight ml fractions were collected and assayed for cyclic AMP- and cyclic GMP-phosphodiesterase activity in the presence and absence of 0.1 units of calmodulin and 10 mM CaCl2. Appropriate fractions were pooled and dialyzed against 70 mM sodium acetate/5 mM 2-mercaptoethanol for 20 hours.
# Following complete separation, the combined phosphodiesterase fractions were concentrated to 14% of the original volume using an Amicon ultrafiltration cell fitted with a UM-10 membrane, according to the method of Wells, et al (Wells, J. N., Baird, C. E., Wu, Y. J., Hardman, J. G., Biochim. Biophys. Acta, 384:430-442, 1975). Following concentration, the protein was then diluted to 65% with ethylene glycol monoethyl ether, and stored at -20° C.
# Phosphodiesterase activity was measured as described previously (Weishaar, P. E., Quade, M., Boyd, D., Schenden, J., Mark, S. S., Kaplan, H. R., Drug Devel. Res., 3:517-534, 1983), in a reaction medium containing 40 mM Tris-HCl (pH 8.0), 5 mM MgCl and 4 mM 2-mercaptoethanol. Unless otherwise noted, the concentration of substrate (^3 H-cyclic AMP or ^3 H-cyclic GMP) was 1.0 μM. […]
# Type 3 Phosphodiesterase = test: PDE inhibition, Type 3 phosphodiesterase, smooth muscle (bovine coronary arteries); assay type: biochemical; conditions: 1 × 10^-5 M
# Source text: The method of Thompson, et al (Thompson, W. J., Terasaki, W. L., Epstein, P. M., Strada, S. J., Adv. Cyclic Nucleotide Res., 10:69-92, 1979), with minor modifications, was used to isolate phosphodiesterases from vascular smooth muscle. Bovine coronary arteries (right, anterior descending, and left circumflex arteries) from hearts obtained from a local slaughterhouse were used for these studies. Arteries from two hearts were used for each isolation. Hearts were kept on ice and the arteries were dissected within two hours after the animals were sacrificed. After removing all fat and connective tissue, the arteries were everted, cut into cubes with a single edge razor blade and homogenized with a Brinkman Polytron three times at a rheostat setting of 10.0 in four volumes of the PDE isolation buffer (10 mM Tris-HCl/pH 7.5, 2 mM MgCl2, and 1 mM dithiothreitol). The resulting homogenate was sonicated (30 sec/ml homogenate) and then centrifuged at 30,000×g for 20 minutes. This and all subsequent procedures were performed at 4° C. […]
# Phosphodiesterase activity was measured as described previously (Weishaar, P. E., Quade, M., Boyd, D., Schenden, J., Mark, S. S., Kaplan, H. R., Drug Devel. Res., 3:517-534, 1983), in a reaction medium containing 40 mM Tris-HCl (pH 8.0), 5 mM MgCl and 4 mM 2-mercaptoethanol. […]
IC50 [1],"% Inhibition of 3H-cAMP Hydrolysis, Type 1 Phosphodiesterase (Type 1 Phosphodiesterase)","% Inhibition of 3H-cGMP Hydrolysis, Type 1 Phosphodiesterase (Type 1 Phosphodiesterase)","% Inhibition of 3H-cAMP Hydrolysis, Type 3 Phosphodiesterase (Type 3 Phosphodiesterase)",SMILES
19.3 µM,N (0-20% inhibition at 1 × 10^-5 M),N (0-20% inhibition at 1 × 10^-5 M),B (36-55% inhibition at 1 × 10^-5 M),"CCn1nc(C)c2[nH]c(=S)[nH]c(=O)c21 [Example 2, 1-Ethyl-1,4,5,6-tetrahydro-3-methyl-pyrazolo[4,3-d]pyrimidine-5-thione-7-on]"
11 µM,N (0-20% inhibition at 1 × 10^-5 M),N (0-20% inhibition at 1 × 10^-5 M),N (0-20% inhibition at 1 × 10^-5 M),"Cc1nn(C)c2c(=O)[nH]c(=O)[nH]c12 [Example 1, 1,3-Dimethylpyrazolo[4,3-d]pyrimidine-5,7-(4H, 6H)dione]"
